pIC50: −log10 of the molar value.

Results on 39 molecules are retold here after patent US11352339B2 (MISSION THERAPEUTICS LIMITED, priority 2016, dated 2022).

This assay deals with USP30 (Homo sapiens (Human), UniProt Q70CQ3). Briefly: USP30 Biochemical IC50 Assay. The conditions noted are these: fluorescence polarisation, TAMRA labelled peptide linked to ubiquitin; 30 min pre-incubation, read after 2 h; read-out: IC50 range. The procedure: Reactions were performed in duplicate in black 384 well plates (small volume, Greiner 784076) in a final reaction volume of 21 μl. Either 1 μl of 50% DMSO or diluted compound was added to the plate. […] Enzyme and compound were incubated for 30 min at room temp. Reactions were initiated by the addition of 50 nM of TAMRA labelled peptide linked to ubiquitin via an iso-peptide bond as fluorescence polarisation substrate. Reactions were read immediately after addition of substrate and following a 2 h incubation at room temperature. Readings were performed on a Pherastar Plus (BMG Labtech). λ Excitation 540 nm; λ Emission 590 nm.
Chain of USP30 (Q70CQ3 57-517): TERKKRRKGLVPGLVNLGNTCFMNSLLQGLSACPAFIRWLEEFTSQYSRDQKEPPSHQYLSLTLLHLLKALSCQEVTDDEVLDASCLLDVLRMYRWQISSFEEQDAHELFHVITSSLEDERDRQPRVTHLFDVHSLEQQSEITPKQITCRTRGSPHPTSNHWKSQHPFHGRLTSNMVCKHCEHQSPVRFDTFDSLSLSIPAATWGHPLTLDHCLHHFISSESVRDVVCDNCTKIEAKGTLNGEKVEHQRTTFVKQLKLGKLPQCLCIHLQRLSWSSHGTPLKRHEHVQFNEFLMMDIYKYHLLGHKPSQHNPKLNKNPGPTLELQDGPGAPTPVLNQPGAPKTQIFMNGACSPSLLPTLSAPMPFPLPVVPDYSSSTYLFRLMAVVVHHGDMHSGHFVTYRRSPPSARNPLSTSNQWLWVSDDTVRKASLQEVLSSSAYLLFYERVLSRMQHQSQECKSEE

For `N#CN1CC[C@@H](c2noc(C3CCN(c4ncccn4)CC3)n2)C1` [Example 64, (R)-3-(5-(1-(Pyrimidin-2-yl)piperidin-4-yl)-1,2,4-oxadiazol-3-yl)pyrrolidine-1-carbonitrile], the pIC50 (as a rule, the negative decadic logarithm of the IC50, by convention in mol/L) is 5.00 to 6.00.
As to `N#Cc1cnn(-c2ccnc(-c3nc([C@@H]4CCCN4C#N)no3)c2)c1` [Example 191, (S)-1-(2-(3-(1-Cyanopyrrolidin-2-yl)-1,2,4-oxadiazol-5-yl)pyridin-4-yl)-1H-pyrazole-4-carbonitrile], the pIC50 was 5.00 to 6.00.
Consider `Cc1noc(C)c1-c1ccn2c(C3CCN(C#N)C3)cnc2c1` (stereo not drawn) [Example 125, 3-(7-(3,5-Dimethylisoxazol-4-yl)imidazo[1,2-a]pyridin-3-yl)pyrrolidine-1-carbonitrile], for which the pIC50 is 5.00 to 6.00.
For the molecule `C[C@@H]1CN(C#N)C[C@H]1c1cc(-c2ccccc2)n[nH]1` (relative stereo) [Example 49, Trans-3-methyl-4-(3-phenyl-1H-pyrazol-5-yl)pyrrolidine-1-carbonitrile], the pIC50 was 5.00 to 6.00.
Consider `CN1CCN(c2ccc(-c3cc(C4CCN(C#N)C4)[nH]n3)cc2)CC1` (stereo not drawn) [Example 5, 3-(3-(4-(4-Methylpiperazin-1-yl)phenyl)-1H-pyrazol-5-yl)pyrrolidine-1-carbonitrile], for which the pIC50 was 6.00 to 7.00.
With `C[C@@H]1CN(C#N)C[C@H]1c1cc(-c2ccncc2)n[nH]1` (relative stereo) [Example 48, Trans-3-methyl-4-(3-(pyridin-4-yl)-1H-pyrazol-5-yl)pyrrolidine-1-carbonitrile] the figure was 5.00 to 6.00; with `CC[C@@H]1CN(C#N)C[C@H]1c1cc(-c2cccc(-c3ccccc3)c2)n[nH]1` (relative stereo) [Example 43, trans-3-(3-([1,1′-biphenyl]-3-yl)-1H-pyrazol-5-yl)-4-ethylpyrrolidine-1-carbonitrile], 6.00 to 7.00; with `N#CN1CCC(c2cc(-c3ccnc(-c4ccccc4)c3)[nH]n2)C1` (stereo not drawn) [Example 38, 3-(5-(2-Phenylpyridin-4-yl)-1H-pyrazol-3-yl)pyrrolidine-1-carbonitrile], 6.00 to 7.00.
As to `CNC(=O)c1cccc(-c2cc(-c3nc(C4CCCN4C#N)no3)ccn2)c1` (stereo not drawn) [Example 171, 3-(4-(3-(1-Cyanopyrrolidin-2-yl)-1,2,4-oxadiazol-5-yl)pyridin-2-yl)-N-methylbenzamide], the pIC50 is 5.00 to 6.00.
`N#Cc1cccc(-c2ccc3nc([C@@H]4CCCN4C#N)oc3c2)n1` [Example 132, (S)-6-(2-(1-Cyanopyrrolidin-2-yl)benzo[d]oxazol-6-yl)picolinonitrile]: the pIC50 was 5.00 to 6.00.
With `N#Cc1cccc(-c2ccc3oc([C@@H]4CCCN4C#N)nc3c2)c1` [Example 126, (S)-2-(5-(3-Cyanophenyl)benzo[d]oxazol-2-yl)pyrrolidine-1-carbonitrile] the figure was 6.00 to 7.00.
For the molecule `N#CN1CCC(c2noc(-c3cc(Cl)cc(OC(F)(F)F)c3)n2)C1` (stereo not drawn) [Example 57, 3-(5-(3-Chloro-5-(trifluoromethoxy)phenyl)-1,2,4-oxadiazol-3-yl)pyrrolidine-1-carbonitrile], the pIC50 is 6.00 to 7.00.
Turning to `N#CN1CCC(c2cc(NC(=O)c3ccccc3)n[nH]2)C1` (stereo not drawn) [Example 50, N-(3-(1-Cyanopyrrolidin-3-yl)-1H-pyrazol-5-yl)benzamide], the pIC50 is 6.00 to 7.00.
With `COc1cc(-c2nc(C3CCN(C#N)C3)no2)nc2ccccc12` (stereo not drawn) [Example 58, 3-(5-(4-Methoxyquinolin-2-yl)-1,2,4-oxadiazol-3-yl)pyrrolidine-1-carbonitrile] the figure was 5.00 to 6.00.
Turning to `CCc1cccc(-c2ccc3nc([C@@H]4CCCN4C#N)oc3c2)c1` [Example 130, (S)-2-(6-(3-Ethylphenyl)benzo[d]oxazol-2-yl)pyrrolidine-1-carbonitrile], the pIC50 was 6.00 to 7.00.
With `Cc1nc2nc(C3CCN(C#N)C3)[nH]c2cc1-c1ccccc1` (stereo not drawn) [Example 99, 3-(5-Methyl-6-phenyl-3H-imidazo[4,5-b]pyridin-2-yl)pyrrolidine-1-carbonitrile], the pIC50 was 6.00 to 7.00.
Turning to `N#Cc1cc(-c2nccc(-c3nc([C@@H]4CCCN4C#N)no3)n2)ccn1` [Example 188, (S)-4-(4-(3-(1-Cyanopyrrolidin-2-yl)-1,2,4-oxadiazol-5-yl)pyrimidin-2-yl)picolinonitrile], the pIC50 is greater than 7.00.
Turning to `N#CN1CC[C@@H](c2cc(-c3cccc(-c4cnoc4)c3)[nH]n2)C1` [Example 32, 3-(5-(3-(Isoxazol-4-yl)phenyl)-1H-pyrazol-3-yl)pyrrolidine-1-carbonitrile], the pIC50 is 5.00 to 6.00.
With `COC(=O)c1ccccc1-c1cccc(-c2nc(C3CCCN3C#N)no2)c1` (stereo not drawn) [Example 156, Methyl 3′-(3-(1-cyanopyrrolidin-2-yl)-1,2,4-oxadiazol-5-yl)-[1,1′-biphenyl]-2-carboxylate] the figure was 6.00 to 7.00.
With `N#Cc1ccc(-c2cnc3[nH]c(C4CCN(C#N)C4)nc3c2)cc1` (single isomer, unassigned) [Example 90, 3-(6-(4-Cyanophenyl)-3H-imidazo[4,5-b]pyridin-2-yl)pyrrolidine-1-carbonitrile], the pIC50 was 6.00 to 7.00.
`N#CN1CCC(c2nnc(-c3ccccc3)[nH]2)C1` (stereo not drawn) [Example 106, 3-(5-Phenyl-4H-1,2,4-triazol-3-yl)pyrrolidine-1-carbonitrile]: the pIC50 is 5.00 to 6.00.
Turning to `N#CN1CCC(c2[nH]nc(-c3cccc(N4CCCCC4)n3)c2F)C1` (stereo not drawn) [Example 196, 3-(4-Fluoro-3-(6-(piperidin-1-yl)pyridin-2-yl)-1H-pyrazol-5-yl)pyrrolidine-1-carbonitrile], the pIC50 is 6.00 to 7.00.
With `N#Cc1cccc(-c2nccc(-c3nc([C@@H]4CCCN4C#N)no3)n2)c1` [Example 186, (S)-2-(5-(2-(3-Cyanophenyl)pyrimidin-4-yl)-1,2,4-oxadiazol-3-yl)pyrrolidine-1-carbonitrile], the pIC50 is greater than 7.00.
With `N#Cc1ccc(-c2ccnc(-c3nc([C@@H]4CCCN4C#N)no3)c2)cc1` [Example 176, (S)-2-(5-(4-(4-Cyanophenyl)pyridin-2-yl)-1,2,4-oxadiazol-3-yl)pyrrolidine-1-carbonitrile], the pIC50 is 6.00 to 7.00.
Regarding `N#Cc1cccc(-c2ccc3oc([C@@H]4CCCN4C#N)nc3c2)n1` [Example 127, (S)-6-(2-(1-Cyanopyrrolidin-2-yl)benzo[d]oxazol-5-yl)picolinonitrile], the pIC50 was 5.00 to 6.00.
The same measure for `N#CN1CCC(c2nc3ccc(-c4ccc(C(N)=O)cc4)cc3[nH]2)C1` (stereo not drawn) [Example 74, 4-(2-(1-Cyanopyrrolidin-3-yl)-1H-benzo[d]imidazol-6-yl)benzamide]: 6.00 to 7.00; for `N#Cc1ccc(-c2cnc3[nH]c(C4CCN(C#N)C4)nc3c2)cc1` (single isomer, unassigned) [Example 91, 3-(6-(4-Cyanophenyl)-3H-imidazo[4,5-b]pyridin-2-yl)pyrrolidine-1-carbonitrile]: 6.00 to 7.00.
As to `Cc1cc(-c2cc(C3CCN(C#N)C3)[nH]n2)ccn1` (stereo not drawn) [Example 11, 3-(3-(2-Methylpyridin-4-yl)-1H-pyrazol-5-yl)pyrrolidine-1-carbonitrile], the pIC50 is 5.00 to 6.00.
As for `N#CN1CCCC1c1noc(-c2cccc(-c3cccnc3)c2)n1` (stereo not drawn) [Example 152, 2-(5-(3-(Pyridin-3-yl)phenyl)-1,2,4-oxadiazol-3-yl)pyrrolidine-1-carbonitrile], the pIC50 is 6.00 to 7.00.
As to `N#CN1CCC(c2nc3nccc(-c4ccccc4)c3[nH]2)C1` (stereo not drawn) [Example 98, 3-(7-Phenyl-3H-imidazo[4,5-b]pyridin-2-yl)pyrrolidine-1-carbonitrile], the pIC50 is 5.00 to 6.00.
Take `N#CN1CCCC1c1noc(-c2ccnc(-c3cccc(OC(F)(F)F)c3)n2)n1` (stereo not drawn) [Example 184, 2-(5-(2-(3-(Trifluoromethoxy)phenyl)pyrimidin-4-yl)-1,2,4-oxadiazol-3-yl)pyrrolidine-1-carbonitrile]: the pIC50 is greater than 7.00.
Take `N#CN1CCC(c2nc3cc(-c4ccccc4)cnc3[nH]2)C1` (stereo not drawn) [Example 83, 3-(6-Phenyl-3H-imidazo[4,5-b]pyridin-2-yl)pyrrolidine-1-carbonitrile]: the pIC50 is 6.00 to 7.00.
Take `N#CN1CCC(c2cc(-c3cccc(-c4ccccc4)c3)n[nH]2)C1` (stereo not drawn) [Example 14, 3-(3-([1,1′-Biphenyl]-3-yl)-1H-pyrazol-5-yl)pyrrolidine-1-carbonitrile]: the pIC50 is 6.00 to 7.00.
With `Cn1cc(-c2cccc(-c3cc(C4CCN(C#N)C4)n[nH]3)c2)cn1` (stereo not drawn) [Example 31, 3-(5-(3-(1-Methyl-1H-pyrazol-4-yl)phenyl)-1H-pyrazol-3-yl)pyrrolidine-1-carbonitrile], the pIC50 was 5.00 to 6.00.
Regarding `N#CN1CC[C@@H](c2noc(-c3cc(-c4ccccc4)ccn3)n2)C1` [Example 63, (R)-3-(5-(4-Phenylpyridin-2-yl)-1,2,4-oxadiazol-3-yl)pyrrolidine-1-carbonitrile], the pIC50 was 6.00 to 7.00.
Turning to `N#CN1CCC(c2cc(NC(=O)Cc3ccccc3)n[nH]2)C1` (stereo not drawn) [Example 51], the pIC50 was 6.00 to 7.00.
For the molecule `COc1cc(-c2nc([C@@H]3CCN(C#N)C3)no2)ccc1-c1cnn(C)c1` [Example 71, (R)-3-(5-(3-Methoxy-4-(1-methyl-1H-pyrazol-4-yl)phenyl)-1,2,4-oxadiazol-3-yl)pyrrolidine-1-carbonitrile], the pIC50 is 6.00 to 7.00.
As for `C[C@@H]1CN(C#N)C[C@H]1c1n[nH]c(-c2cccc(-c3ccccc3)c2)n1` (relative stereo) [Example 114, Trans-3-(3-([1,1′-biphenyl]-3-yl)-1H-1,2,4-triazol-5-yl)-4-methylpyrrolidine-1-carbonitrile], the negative-log IC50 (pIC50) was greater than 7.00.
With `N#CN1CCC(c2noc(-c3ccc(Br)cc3)n2)C1` (stereo not drawn) [Example 60, 3-(5-(4-Bromophenyl)-1,2,4-oxadiazol-3-yl)pyrrolidine-1-carbonitrile], the pIC50 is 5.00 to 6.00.
